Experimental data as given in PMC8037336, “Metabolite Profiling and Characterization of LW6, a Novel HIF-1α Inhibitor, as an Antitumor Drug Candidate in Mice” (Molecules, 2021).
“And” between values parts separate entries of the source, which are not always exact repeats. Equal values may be shown once.

Experiment: Metabolite profiling and semi-quantitation (peak area-time AUC) of LW6 and its metabolites in mouse plasma after a single i.v. or oral dose of LW6
Assay type: in vivo, male ICR mice
Settings: for Detection of metabolite in mouse plasma: LW6 5 mg/kg i.v. or p.o., pMRM-IDA-EPI, S/N > 3; for Relative % of Parent AUC0→t (i.v.): AUC0→t relative to AUC0→t of parent after i.v. administration; for Relative % of Total Metabolite AUC0→t: relative to sum of AUC0→t of all detected metabolites; for Average AUC0→t (Peak Intensity, Cps) / Average AUC0→t (Peak inTensity, cps): mouse plasma, n = 3, 0-24 h, LC-MS/MS peak intensity-time curve; for Average AUC0→t (Peak Intensity, Cps): LW6 5 mg/kg i.v.; for Relative AUC of metabolite versus parent AUC (i.v.): versus AUC0→t of LW6 administered intravenously; for Relative % of Parent AUC0→t (p.o.): AUC0→t relative to AUC0→t of parent after i.v. administration (5 mg/kg); for Average AUC0→t (Peak inTensity, cps): LW6 5 mg/kg p.o.
Procedure: To determine the in vivo metabolism of LW6, male ICR mice were administered a single intravenous (i.v., 5 mg/kg) or oral dose (p.o., 5 mg/kg) of LW6. Serial blood samples (Section 4.2) were collected and metabolite identification was performed using a pMRM-IDA-EPI scan method in negative ion mode on a QTRAP.
Animal experiments were approved by the Institutional Animal Care and Use Committee of the Korea Research Institute of Bioscience and Biotechnology (Chungbuk, Korea; KRIBB-AEC-15005, 9 January 2015) and performed in compliance with the National Institutes of Health Guidelines for the care and use of laboratory animals and Korean national laws for ethical conduct in the care and use of animals and the rules of Good Laboratory Practice. Six specific pathogen-free (SPF) male ICR mice (8 weeks, 31.5–40.1 g) were purchased from Koatech Co. (Pyeongtaek, Kyonggi, Korea) and maintained in an SPF environment at 22 ± 2 °C with a 12 h light/dark cycle and relative humidity of 50 ± 10%. Food (Teklad Global rodent diet 2018S, ENVIGO, Indianapolis, IN, USA) and water were provided ad libitum, unless noted otherwise. Animals were acclimated to the testing facility for 1 week before being used in the study. The animal group for oral dosing was fasted overnight before the study and fed again 4 h after dosing. Mice were administered a single dose of the test substance intravenously via tail vein injection (n = 3, 5 mg/kg) or orally by disposable syringe with an oral zonde (n = 3, 5 mg/kg). Dosing solutions were prepared in dimethylacetamide/Cremophor EL/20% v/v (2-hydroxypropyl)-β-cyclodextrin in de-ionized water (1/1/3 v/v/v; i.v. or p.o. for LW6) and administered at a dose volume of 5 mL/kg for both i.v. and p.o. Peng et al. method was used for serial blood sampling in mice. Briefly, blood samples (~50 µL each) were collected via the saphenous vein of free alive mice at the time points including 0, 0.25, 0.5, 0.75, 1, 2, 4, 6, 8, and 24 h after oral administration or 0, 0.083, 0.167, 0.25, 0.5, 1, 2, 4, 6, 8, and 24 h after intravenous administration. These samples were collected into Microvette® capillary tubes at predetermined time points. The blood samples were centrifuged under refrigeration at 12,000× g for 3 min and then stored frozen at −20 °C until analysis.
Plasma samples were prepared for analysis by the protein precipitation method. A simple protein precipitation is to remove proteins in plasma samples with organic solvents. Briefly, 15 µL of each plasma sample was transferred to a PCR tube (Axygen, Union City, CA, USA). Four volumes of acetonitrile containing the analytical internal standard, 4-methylumbelliferone, were added, and the resulting mixture was vortexed for 10 min on a multi-tube vortexer (VWR International, Radnor, PA, USA). The samples were sonicated for 30 min at room temperature. The tubes were centrifuged at 12,000× g for 10 min, and the supernatant was analyzed for the test substance. Sample analysis was performed with a 3200 Q TRAP LC/MS/MS system (Applied Biosystems, Foster City, CA, USA) in negative MRM mode. The analytical methods are described in the following sections.
The LC-MS/MS system consisted of an Agilent 1100 series HPLC system (Agilent Technologies, Santa Clara, CA, USA) equipped with an API 3200 QTRAP hybrid triple quadrupole-linear ion trap mass spectrometer with a Turbo V^TM ion spray. All samples were analyzed on an Acquisition mode and data were processed using Analyst® software (version 1.4.2, Applied Biosystems, Foster City, CA, USA). The sample injection volume was 10 µL, and separation was performed using an Atlantis dC18 column (50 × 2.1 mm i.d., 3 µm, Waters, Milford, MA, USA) with a SecurityGuard^TM C18 guard column (2.0 × 4.0 mm i.d., Phenomenex, Torrance, CA, USA) maintained at room temperature. […]

Relative % of Parent AUC0→t (i.v.) (after LW6 5 mg/kg i.v.) [%]	Relative % of Total Metabolite AUC0→t (after LW6 5 mg/kg i.v.)	Average AUC0→t (Peak Intensity, Cps)	Relative % of Total Metabolite AUC0→t (after LW6 5 mg/kg i.v., listed as APA (M7)) [%]	Relative AUC of metabolite versus parent AUC (i.v.) (after LW6 5 mg/kg i.v.)	Relative % of Parent AUC0→t (p.o.) (after LW6 5 mg/kg p.o.) [%]	Relative % of Total Metabolite AUC0→t (after LW6 5 mg/kg p.o.)	Relative % of Total Metabolite AUC0→t (after LW6 5 mg/kg p.o., listed as APA (M7)) [%]	Relative AUC of metabolite versus parent AUC (i.v.) (after LW6 5 mg/kg p.o.) [fold]	Average AUC0→t (Peak inTensity, cps)	Relative % of Parent AUC0→t (i.v.) (after LW6 5 mg/kg i.v., 5 mg/kg) [%]	Relative % of Parent AUC0→t (p.o.) (after LW6 5 mg/kg p.o., 5 mg/kg)	SMILES	Detection of metabolite in mouse plasma
2.99	0.15%	31,345 cps	–	–	–	–	–	–	–	–	–	Oc1ccc(C23CC4CC(CC(C4)C2)C3)cc1 [M12]	only detected in plasma samples obtained from intravenous dosing
1877.92	92.1% and 92%	19,697,150 cps	92.09	approximately 19 fold	1686.37	93.3% and 93%	93.32	~17	17,688,080 cps	–	–	O=C(O)COc1ccc(C23CC4CC(CC(C4)C2)C3)cc1 [APA, 2-(4-((3r,5r,7r)-adamantan-1-yl)phenoxy)acetic acid]	–
–	–	1,048,883 cps	–	–	–	–	–	–	28,735 cps	100	2.7% and 2.74%	COC(=O)c1ccc(O)c(NC(=O)COc2ccc(C34CC5CC(CC(C5)C3)C4)cc2)c1 [LW6]	–
0.73	0.04%	7672 cps	–	–	–	–	–	–	–	–	–	O=C(COc1ccc(C23CC4CC(CC(C4)C2)C3)cc1)Nc1cc(C(=O)O)ccc1O [M9]	only detected in plasma samples obtained from intravenous dosing
